Measured values: patent US6569411B2, “Serine carbonates” (The Gillette Company, priority 1999, dated 2003)
One block for each compound: values may come before it.

Key:
[1] = system: Staphylococcus haemolyticus cells; test: Sniff assay: malodor inhibition and fragrance production with axillary malodor precursors; format: cell-based; settings: 0.1% compound with malodor precursors and cells at 37° C., seven judges, 8-point scale
Experimental: The serine carbonate 2-Amino-3-(1,5,7-trimethyl-octyl-oxycarbonyloxy)-propionic acid has been tested in a sniff assay to determine whether, in the presence of Staphylococcus haemolyticus and axillary malodor precursors, production of malodor is inhibited and production of fragrance can be detected. For this assay, axillary washes, which contain malodor precursors, were dried into vials at a concentration sufficient to produce a strong axillary malodor when incubated with Staphylococcus haemolyticus cells. Vials were incubated at 37° C. with Staphylococcus haemolyticus cells. The vials contained […] with 0.1% 2-amino-3-(1,5,7-trimethyl-octyl-oxycarbonyloxy)-propionic acid. Control precursor vials were not incubated with the cells. The mixtures were extracted with chloroform and about 10 μl of the chloroform layers were spotted on bibulous paper. After the chloroform had evaporated, the papers were evaluated for malodor level and fragrance level. Evaluations were done by seven judges who rated malodor or fragrance strength on an 8-point scale from 0 (none) to 7 (extremely strong). Results were calculated as percent change from control malodor or precursor fragrance score.

[2] = system: Staphylococcus haemolyticus cells; test: Gas chromatography assay of cleavage of serine carbonates by axilla bacteria; format: cell-based; settings: 350 nmol of compound, 16-18 hours at 37° C.
Experimental: This example is meant to illustrate, not to limit, the invention.
The synthesized amino acid derivatives were tested for their ability to be cleaved by bacteria normally found in human axilla. A 100 ml culture of Staphylococcus haemolyticus was grown overnight at 37° C. in TSB medium.
The cells were pelleted by centrifuging the culture at 5,000 rpm for 12 minutes, and the pelleted cells were resuspended in sterile saline. The cells were again pelleted and resuspended in sterile saline. After pelleting the cells once again, the cells were weighed and resuspended in sterile assay buffer (50 mM phosphate, pH 6.8, 1% glucose/dextran). The final concentration of cells was 0.05 g cells/ml (for the gas chromatography (GC) assay). These cell suspensions can be stored at 4° C.
The serine carbonate was prepared as stock solution at a concentration of approximately 5 mg/ml in 50 mM potassium phosphate buffer (pH 6.8). If necessary, the pH can be adjusted to 6.8-7.0 with 1N NaOH. The serine carbonate stock solution was sterilized by filtering through 0.22 μm filters.
For a negative control, the cells were incubated with 100 μl sterile phosphate buffer. […] The samples then were extracted into 100 μl chloroform and analyzed by gas chromatography.

SMILES: CC(C)CC(C)CCCC(C)OC(=O)OCC(N)C(=O)O (centres unmarked) [Example 3a, 2-Amino-3-(1,5,7-trimethyl-octyloxycarbonyloxy)-propionic acid]
Malodor drop ([1]; percent change from control malodor score): 50% | Fragrance increase ([1]; percent change from control precursor fragrance score): 30%

melting point: 147 °C
SMILES: CC(C)CCCC(C)C1CCC2C3CC=C4CC(OC(=O)OCC(N)C(=O)O)CCC4(C)C3CCC12C (centres unmarked)

SMILES: CC(CCOC(=O)OCC(N)C(=O)O)CCc1ccccc1 (centres unmarked) [Example 3e, 2-Amino-3-(3-methyl-5-phenyl-pentyloxycarbonyloxy)-propionic acid]
precursor cleaved by the cells [2]: 40% | 3-methyl-5-phenyl-pentanol produced by the cell incubation ([2]; pH 6.8, GC analysis): 140 nmols
